The results in this text go back to patent US8912195B2, “Alkyl amides as HIV attachment inhibitors” (priority 2010, dated 2014).

For this test, the system named is single-round infectious reporter virus with HIV-1 LAI envelope. Description: Single-round infectious HIV-1 LAI luciferase reporter virus infection of MT2 cells. The test is classed as cell-based. As to conditions: Human immunodeficiency virus 1, MT2, 72 h. The source says:
• Virus production—Human embryonic Kidney cell line, 293T (HEK 293T), was propagated in Dulbecco's Modified Eagle Medium (Invitrogen, Carlsbad, Calif.) containing 10% fetal Bovine serum (FBS, Sigma, St. Louis, Mo.). The human T-cell leukemia cell MT2 (AIDS Research and Reference Reagent Program, Cat. 237) was propagated in RPMI 1640 (Invitrogen, Carlsbad, Calif.) containing 10% fetal bovine serum (FBS, Hyclone, Logan, Utah) • Virus infection—Single-round infectious reporter virus was produced by co-transfecting HEK 293T cells with plasmide expressing the HIV-1 LAI envelope along with a plasmid containing an HIV-1 LAI proviral cDNA with the envelope gene replaced by a firefly luciferase reporter gene (Chen et al, Ref 41). Transfections were performed using lipofectAMINE PLUS reagent as described by the manufacturer (Invitrogen, Carlsbad, Calif.).
• 1. MT2 cells were plated in black, 384 well plates at a cell density of 5×10^3 cells per well in 25 μl RPMI 1640 containing 10% FBS. • 2. Compound (diluted in dimethylsulfoxide and growth medium) was added to cells at 12.5 μl/well, so that the final assay concentration would be ≦50 nM. • 3. 12.5 μl of single-round infectious reporter virus in Dulbecco's Modified Eagle Medium was added to the plated cells and compound at an approximate multiplicity of infection (MOI) of 0.01, resulting in a final volume of 50 μl per well. • 4. Virus-infected cells were incubated at 37 degrees Celsius, in a CO2 incubator, and harvested 72 h after infection. • 5. Viral infection was monitored by measuring luciferase expression in the infected cells using a luciferase reporter gene assay kit (Steady-Glo, Promega, Madison, Wis.) as described by the manufacturer. Luciferase activity was then quantified by measuring luminescence using an EnVision Multilabel Plate Readers (PerkinElmer, Waltham, Mass.). • 6. The percent inhibition for each compound was calculated by quantifying the level of luciferase expression in cells infected in the presence of each compound as a percentage of that observed for cells infected in the absence of compound and subtracting such a determined value from 100. • 7. An EC50 provides a method for comparing the antiviral potency of the compounds of this disclosure. The effective concentration for fifty percent inhibition (EC50) was calculated with the Microsoft Excel Xlfit curve fitting software. For each compound, curves were generated from percent inhibition calculated at 10 different concentrations by using a four paramenter logistic model (model 205). Table 1 is the key for the data in Table 2.

Where [1] appears, read: read-out: EC50 Group from Table 1.

Molecules are shown by their SMILES. Where two headings read alike, the source gives them in different places. Bounds are passed on as bounds.

As usually defined, the EC50 is the midpoint of the concentration-response curve.

Consider `CC(C)CC(=O)N1CCN(C(=O)C(=O)c2c[nH]c3c(-n4ccnn4)ncc(F)c23)CC1` [Compound 1001, 1-(4-fluoro-7-(1H-1,2,3-triazol-1-yl)-1H-pyrrolo[2,3-c]pyridin-3-yl)-2-(4-(3-methylbutanoyl)piperazin-1-yl)ethane-1,2-dione], for which the EC50 under setting [1] is < 500 nM.
`COc1cnc(-n2ccnn2)c2[nH]cc(C(=O)C(=O)N3CCN(C(=O)C4CCCCC4)CC3)c12` [Compound 1002, 1-(4-(cyclohexanecarbonyl)piperazin-1-yl)-2-(4-methoxy-7-(1H-1,2,3-triazol-1-yl)-1H-pyrrolo[2,3-c]pyridin-3-yl)ethane-1,2-dione]: the EC50 under setting [1] was < 500 nM.
Still for that read-out and setting: then `COc1cnc(-n2ccnn2)c2[nH]cc(C(=O)C(=O)N3CCN(C(=O)[C@]45C[C@H]6C[C@H](C[C@H](C6)C4)C5)CC3)c12` [Compound 1003], with < 500 nM.
As for `COc1cnc(-n2ccnn2)c2[nH]cc(C(=O)C(=O)N3CCN(C(=O)C4CCCCCC4)CC3)c12` [Compound 1004, 1-(4-(cycloheptanecarbonyl)piperazin-1-yl)-2-(4-methoxy-7-(1H-1,2,3-triazol-1-yl)-1H-pyrrolo[2,3-c]pyridin-3-yl)ethane-1,2-dione], the EC50 came out at 0.14 nM. Moreover, under setting [1], the EC50 is < 500 nM.
As for `CC1CCCC(C(=O)N2CCN(C(=O)C(=O)c3c[nH]c4c(-n5ccnn5)ncc(F)c34)CC2)C1` (stereo not shown) [Compound 2001], the EC50 under setting [1] was < 500 nM.
On the same count and under the same terms, as for `O=C(C(=O)N1CCN(C(=O)C2CCCO2)CC1)c1c[nH]c2c(-n3ccnn3)ncc(F)c12` (stereo not shown) [Compound 2002], the figure is < 500 nM.
As for `CC1CCCCC1C(=O)N1CCN(C(=O)C(=O)c2c[nH]c3c(-n4ccnn4)ncc(F)c23)CC1` (stereo not shown) [Compound 2003], under setting [1], the EC50 was < 500 nM.
For the molecule `O=C(C(=O)N1CCN(C(=O)C23CC4CC(CC2C4)C3)CC1)c1c[nH]c2c(-n3ccnn3)ncc(F)c12` [Compound 2004], the EC50 is 1.15 nM. In addition, the EC50 under setting [1] is < 500 nM.
`O=C(C(=O)N1CCN(C(=O)C2CCCCCC2)CC1)c1c[nH]c2c(-n3ccnn3)ncc(F)c12` [Compound 2005]: the EC50 amounted to 0.36 nM. Further, the EC50 under setting [1] is < 500 nM.
As to `N[C@H]1CCCC[C@@H]1C(=O)N1CCN(C(=O)C(=O)c2c[nH]c3c(-n4ccnn4)ncc(F)c23)CC1` [Compound 2006], the EC50 under setting [1] was > 500 nM.
Regarding `C[C@]1(C(=O)N2CCN(C(=O)C(=O)c3c[nH]c4c(-n5ccnn5)ncc(F)c34)CC2)CCCN1` [Compound 2007], the EC50 under setting [1] was > 500 nM.
`O=C(C(=O)N1CCN(C(=O)C2CC3CCC2C(O)C3)CC1)c1c[nH]c2c(-n3ccnn3)ncc(F)c12` (stereo not shown) [Compound 2008] gave an EC50 of 5.1 nM. Under setting [1], the EC50 is < 500 nM.
`CC(C)(C)C1CCC(C(=O)N2CCN(C(=O)C(=O)c3c[nH]c4c(-n5ccnn5)ncc(F)c34)CC2)CC1` (stereo not shown) [Compound 2009]: under setting [1], the EC50 was > 500 nM.
With `O=C(C(=O)N1CCN(C(=O)C2C[C@H]3C[C@@H]2CCC3O)CC1)c1c[nH]c2c(-n3ccnn3)ncc(F)c12` (stereo partly shown) [Compound 2010], the EC50 under setting [1] is < 500 nM.
Regarding `CC(C)=C[C@@H]1[C@@H](C(=O)N2CCN(C(=O)C(=O)c3c[nH]c4c(-n5ccnn5)ncc(F)c34)CC2)C1(C)C` [Compound 2011], under setting [1], the EC50 was > 500 nM.
`C[C@H]1CC[C@H](C(=O)N2CCN(C(=O)C(=O)c3c[nH]c4c(-n5ccnn5)ncc(F)c34)CC2)CC1` [Compound 2012]: the EC50 under setting [1] was < 500 nM.
For the molecule `NC1(C(=O)N2CCN(C(=O)C(=O)c3c[nH]c4c(-n5ccnn5)ncc(F)c34)CC2)CCCC1` [Compound 2013], the EC50 came out at 451 nM. Besides, the EC50 under setting [1] is < 500 nM.
Consider `O=C(C(=O)N1CCN(C(=O)C2CCOCC2)CC1)c1c[nH]c2c(-n3ccnn3)ncc(F)c12` [Compound 2014], for which the EC50 stood at 12.5 nM. Moreover, the EC50 under setting [1] was < 500 nM.
Consider `O=C(C(=O)N1CCN(C(=O)C2CCOC2)CC1)c1c[nH]c2c(-n3ccnn3)ncc(F)c12` (stereo not shown) [Compound 2015], for which, under setting [1], the EC50 was < 500 nM.
With `O=C(C(=O)N1CCN(C(=O)C23CC4CC(CC(C4)C2)C3)CC1)c1c[nH]c2c(-n3ccnn3)ncc(F)c12` [Compound 2016], the EC50 under setting [1] was < 500 nM.
For the molecule `O=C(C(=O)N1CCN(C(=O)C2CCCCC2)CC1)c1c[nH]c2c(-n3ccnn3)ncc(F)c12` [Compound 2017], the EC50 is 0.11 nM. For the same molecule, the EC50 under setting [1] was < 500 nM.
With `O=C(C(=O)N1CCN(C(=O)C2CCC(O)CC2)CC1)c1c[nH]c2c(-n3ccnn3)ncc(F)c12` (stereo not shown) [Compound 2018], the EC50 under setting [1] was < 500 nM.
In the case of `O=C(C(=O)N1CCN(C(=O)[C@H](O)c2ccccc2)CC1)c1c[nH]c2c(-n3ccnn3)ncc(F)c12` [Compound 2019], it took 344 nM to reach a half-maximal effect (EC50). For the same molecule, under setting [1], the EC50 is < 500 nM.
In the case of `CN1CCC(C(=O)N2CCN(C(=O)C(=O)c3c[nH]c4c(-n5ccnn5)ncc(F)c34)CC2)CC1` [Compound 2020], the EC50 under setting [1] was > 500 nM.
`CN1CCCC(C(=O)N2CCN(C(=O)C(=O)c3c[nH]c4c(-n5ccnn5)ncc(F)c34)CC2)C1` (stereo not shown) [Compound 2021]: the EC50 came out at 76.9 nM. The EC50 under setting [1] was < 500 nM.
In the case of `O=C(C(=O)N1CCN(C(=O)C2CCC(F)(F)CC2)CC1)c1c[nH]c2c(-n3ccnn3)ncc(F)c12` [Compound 2022], under setting [1], the EC50 was < 500 nM.
Still for that read-out and setting: as for `O=C(C(=O)N1CCN(C(=O)[C@@H](O)c2ccccc2)CC1)c1c[nH]c2c(-n3ccnn3)ncc(F)c12` [Compound 2023], the figure is < 500 nM; as for `O=C(C(=O)N1CCN(C(=O)C2CCCOC2)CC1)c1c[nH]c2c(-n3ccnn3)ncc(F)c12` (stereo not shown) [Compound 2024], < 500 nM.
For the molecule `CC1(C)CC(C(=O)N2CCN(C(=O)C(=O)c3c[nH]c4c(-n5ccnn5)ncc(F)c34)CC2)CC(C)(C)N1` [Compound 2025], the EC50 under setting [1] was > 500 nM.
As to `CC(C)(C)OC(=O)N[C@@H](C(=O)N1CCN(C(=O)C(=O)c2c[nH]c3c(-n4ccnn4)ncc(F)c23)CC1)c1ccccc1` [Compound 2026], under setting [1], the EC50 was > 500 nM.
For `CC[C@@]12CC3C[C@@](O)(C1)C[C@](C(=O)N1CCN(C(=O)C(=O)c4c[nH]c5c(-n6ccnn6)ncc(F)c45)CC1)(C3)C2` [Compound 2027], the EC50 under setting [1] was < 500 nM.
The molecule `O=CN1CCCC(C(=O)N2CCN(C(=O)C(=O)c3c[nH]c4c(-n5ccnn5)ncc(F)c34)CC2)C1` (stereo not shown) [Compound 2028] showed an EC50 of 25.5 nM. Also, under setting [1], the EC50 is < 500 nM.
Regarding `CN1CCCCC1C(=O)N1CCN(C(=O)C(=O)c2c[nH]c3c(-n4ccnn4)ncc(F)c23)CC1` (stereo not shown) [Compound 2029], the EC50 under setting [1] is > 500 nM.
`CN1CCC[C@H]1C(=O)N1CCN(C(=O)C(=O)c2c[nH]c3c(-n4ccnn4)ncc(F)c23)CC1` [Compound 2030]: the concentration giving a half-maximal response (EC50) under setting [1] is > 500 nM.
The same measure, in the same setting: then `CC(C)(C)OC(=O)N[C@H](C(=O)N1CCN(C(=O)C(=O)c2c[nH]c3c(-n4ccnn4)ncc(F)c23)CC1)c1ccccc1` [Compound 2031], with > 500 nM; and `C[C@]12C[C@]3(C)C[C@](N)(C1)C[C@](C(=O)N1CCN(C(=O)C(=O)c4c[nH]c5c(-n6ccnn6)ncc(F)c45)CC1)(C2)C3` [Compound 2032], with > 500 nM.
Consider `CC(C)(C)OC(=O)N1CCC(C(=O)N2CCN(C(=O)C(=O)c3c[nH]c4c(-n5ccnn5)ncc(F)c34)CC2)C1` (stereo not shown) [Compound 2033], for which the EC50 under setting [1] was > 500 nM.
`CC(C)(C)OC(=O)N1CCCC(C(=O)N2CCN(C(=O)C(=O)c3c[nH]c4c(-n5ccnn5)ncc(F)c34)CC2)C1` (stereo not shown) [Compound 2034]: under setting [1], the EC50 was > 500 nM.
The same measure, in the same setting: as for `CC(C)(C)OC(=O)N1CCC(C(=O)N2CCN(C(=O)C(=O)c3c[nH]c4c(-n5ccnn5)ncc(F)c34)CC2)CC1` [Compound 2035], the figure is > 500 nM.
As to `CN(C)[C@@H](C(=O)N1CCN(C(=O)C(=O)c2c[nH]c3c(-n4ccnn4)ncc(F)c23)CC1)c1ccccc1` [Compound 2036], the EC50 under setting [1] is > 500 nM.
`CN(C)[C@H](C(=O)N1CCN(C(=O)C(=O)c2c[nH]c3c(-n4ccnn4)ncc(F)c23)CC1)c1ccccc1` [Compound 2037]: the EC50 under setting [1] is > 500 nM.
Consider `O=C(C(=O)N1CCN(C(=O)C2CC2)CC1)c1c[nH]c2c(-n3ccnn3)ncc(F)c12` [Compound 2038], for which the EC50 under setting [1] was < 500 nM.
With `CC(C)C(=O)N1CCN(C(=O)C(=O)c2c[nH]c3c(-n4ccnn4)ncc(F)c23)CC1` [Compound 2039], the EC50 under setting [1] was < 500 nM.
Same read-out and setting: then `CCCCCC(=O)N1CCN(C(=O)C(=O)c2c[nH]c3c(-n4cnc(C)n4)ncc(OC)c23)CC1` [Compound 2040], with < 500 nM; and `COc1cnc(-n2cnc(C)n2)c2[nH]cc(C(=O)C(=O)N3CCN(C(=O)CCC4CCCC4)CC3)c12` [Compound 2041], with < 500 nM.
